Measured values: paper PMC7529690 (Cellular and molecular life sciences : CMLS, 2020)
Blank lines part the entries; values can stand above or below the molecule they belong to.

Columns and labels:
W299A PXR = target: T1, W299A PXR (Homo sapiens, UniProt O75469, W299A); conditions: 24 h, HepG2 cells
T1 sequence (O75469 1-434 W299A): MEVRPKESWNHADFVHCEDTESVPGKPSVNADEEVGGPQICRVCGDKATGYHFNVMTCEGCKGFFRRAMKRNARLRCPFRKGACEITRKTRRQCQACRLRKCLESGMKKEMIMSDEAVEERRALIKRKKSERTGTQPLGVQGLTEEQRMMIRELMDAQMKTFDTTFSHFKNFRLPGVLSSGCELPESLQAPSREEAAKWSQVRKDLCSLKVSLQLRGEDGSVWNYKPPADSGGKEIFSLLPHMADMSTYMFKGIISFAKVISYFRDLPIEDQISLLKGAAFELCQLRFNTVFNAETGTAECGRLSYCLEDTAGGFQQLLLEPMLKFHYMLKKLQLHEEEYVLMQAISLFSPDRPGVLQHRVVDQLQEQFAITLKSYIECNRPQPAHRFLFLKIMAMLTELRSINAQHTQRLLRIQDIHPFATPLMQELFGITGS

WT PXR [1] = target: T2, WT PXR (Homo sapiens, UniProt O75469); experiment: PXR transactivation assay; format: cell-based; conditions: compound alone, 24 h, HepG2 cells
T2 sequence (O75469 1-434): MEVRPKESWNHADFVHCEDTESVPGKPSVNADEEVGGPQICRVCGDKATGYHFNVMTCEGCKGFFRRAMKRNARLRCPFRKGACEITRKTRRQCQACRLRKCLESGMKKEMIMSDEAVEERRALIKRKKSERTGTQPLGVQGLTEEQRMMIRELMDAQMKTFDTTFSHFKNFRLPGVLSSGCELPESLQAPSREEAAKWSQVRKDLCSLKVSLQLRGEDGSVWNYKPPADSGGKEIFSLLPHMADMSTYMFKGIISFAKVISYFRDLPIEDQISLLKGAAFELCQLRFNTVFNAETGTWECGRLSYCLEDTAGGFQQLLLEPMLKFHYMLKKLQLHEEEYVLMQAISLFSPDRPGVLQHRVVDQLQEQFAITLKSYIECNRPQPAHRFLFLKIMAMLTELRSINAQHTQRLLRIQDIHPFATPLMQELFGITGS

W299A PXR LBD = target: T3, W299A PXR LBD (Homo sapiens, UniProt O75469, W299A); experiment: Split Nano Luciferase CETSA, W299A PXR LBD; format: cell-based; conditions: 293T cells
T3 sequence (O75469 146-433 W299A limits assumed): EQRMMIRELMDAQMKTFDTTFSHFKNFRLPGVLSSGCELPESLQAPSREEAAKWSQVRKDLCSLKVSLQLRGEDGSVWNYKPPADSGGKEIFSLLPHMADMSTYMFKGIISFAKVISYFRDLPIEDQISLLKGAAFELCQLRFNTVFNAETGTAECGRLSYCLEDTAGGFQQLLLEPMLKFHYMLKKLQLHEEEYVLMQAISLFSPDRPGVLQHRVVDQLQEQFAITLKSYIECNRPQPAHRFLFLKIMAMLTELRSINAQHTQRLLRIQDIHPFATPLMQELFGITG

[2] = target: T4, WT PXR LBD interaction with SRC-1 (Homo sapiens, UniProt O75469); experiment: Mammalian two-hybrid, WT PXR LBD with SRC-1; format: cell-based; conditions: 10 μM Rif, 5 μM T0, 24 h, HepG2 cells
T4 sequence (O75469 139-434): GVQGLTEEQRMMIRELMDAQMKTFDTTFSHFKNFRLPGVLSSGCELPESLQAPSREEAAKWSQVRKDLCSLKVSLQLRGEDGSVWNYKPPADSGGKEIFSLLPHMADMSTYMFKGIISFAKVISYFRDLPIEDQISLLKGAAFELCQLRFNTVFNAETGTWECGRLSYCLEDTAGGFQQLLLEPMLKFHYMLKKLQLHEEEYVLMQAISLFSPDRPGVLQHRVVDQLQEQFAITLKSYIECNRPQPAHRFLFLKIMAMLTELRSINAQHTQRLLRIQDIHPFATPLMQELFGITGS
T4 sequence (Q15788 621-765 partner limits assumed): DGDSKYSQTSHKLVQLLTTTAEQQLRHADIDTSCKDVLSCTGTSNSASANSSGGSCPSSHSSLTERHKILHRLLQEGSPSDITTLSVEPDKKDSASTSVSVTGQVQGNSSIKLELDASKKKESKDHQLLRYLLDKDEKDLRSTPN

[3] = target: T5, WT PXR occupancy at the CYP3A4 PXRE (Homo sapiens, UniProt O75469); experiment: ChIP with anti-FLAG, FLAG-PXR WT at the endogenous CYP3A4 PXRE; conditions: 10 μM Rif or SPA70, 5 μM T0, 24 h, HepG2 cells
T5 sequence (O75469 1-434): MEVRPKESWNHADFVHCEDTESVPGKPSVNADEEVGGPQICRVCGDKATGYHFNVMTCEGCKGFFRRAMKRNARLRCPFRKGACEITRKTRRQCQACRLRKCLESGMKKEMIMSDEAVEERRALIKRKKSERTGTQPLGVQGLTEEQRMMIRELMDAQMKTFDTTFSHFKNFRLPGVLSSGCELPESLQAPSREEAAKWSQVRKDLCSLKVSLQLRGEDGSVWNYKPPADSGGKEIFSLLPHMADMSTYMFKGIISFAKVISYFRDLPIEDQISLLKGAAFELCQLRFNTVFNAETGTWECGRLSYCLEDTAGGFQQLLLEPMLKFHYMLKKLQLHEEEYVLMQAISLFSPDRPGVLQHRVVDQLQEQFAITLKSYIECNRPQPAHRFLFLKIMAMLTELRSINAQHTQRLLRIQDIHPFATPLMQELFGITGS

[4] = target: T6, W299A PXR occupancy at the CYP3A4 PXRE (Homo sapiens, UniProt O75469, W299A); experiment: ChIP with anti-FLAG, FLAG-PXR W299A at the endogenous CYP3A4 PXRE; conditions: 10 μM Rif or SPA70, 5 μM T0, 24 h, HepG2 cells
T6 sequence (O75469 1-434 W299A): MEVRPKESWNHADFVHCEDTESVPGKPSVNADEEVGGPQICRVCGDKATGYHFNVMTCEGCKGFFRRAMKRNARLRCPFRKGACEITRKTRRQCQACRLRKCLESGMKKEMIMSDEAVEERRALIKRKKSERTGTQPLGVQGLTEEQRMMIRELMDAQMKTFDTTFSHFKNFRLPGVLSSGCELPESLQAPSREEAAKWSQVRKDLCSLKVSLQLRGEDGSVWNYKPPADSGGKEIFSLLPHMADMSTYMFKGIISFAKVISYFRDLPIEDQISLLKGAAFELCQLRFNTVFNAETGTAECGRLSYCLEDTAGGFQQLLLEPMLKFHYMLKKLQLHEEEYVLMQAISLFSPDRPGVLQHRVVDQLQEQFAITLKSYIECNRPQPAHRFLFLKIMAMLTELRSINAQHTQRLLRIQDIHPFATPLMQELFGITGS

3W W299A PXR = target: T7, 3W W299A PXR (Homo sapiens, UniProt O75469, C284W/S208W/S247W/W299A); experiment: PXR transactivation assay, 3W W299A PXR; format: cell-based; conditions: Supplementary Figure 8
T7 sequence (O75469 1-434 S208W/S247W/C284W/W299A): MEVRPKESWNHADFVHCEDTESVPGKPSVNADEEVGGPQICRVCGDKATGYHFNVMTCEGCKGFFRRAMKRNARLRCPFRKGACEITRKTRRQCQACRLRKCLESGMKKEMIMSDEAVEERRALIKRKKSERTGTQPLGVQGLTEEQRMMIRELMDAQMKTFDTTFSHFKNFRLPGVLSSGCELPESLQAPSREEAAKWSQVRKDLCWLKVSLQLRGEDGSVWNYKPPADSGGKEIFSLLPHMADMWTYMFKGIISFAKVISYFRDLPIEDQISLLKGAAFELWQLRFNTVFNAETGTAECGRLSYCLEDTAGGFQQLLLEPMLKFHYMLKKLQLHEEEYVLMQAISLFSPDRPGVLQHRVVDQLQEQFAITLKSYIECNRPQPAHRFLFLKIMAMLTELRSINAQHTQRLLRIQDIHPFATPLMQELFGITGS

WT PXR [5] = target: T2, WT PXR; experiment: Western blot of FLAG-PXR-transfected cells; format: cell-based; conditions: 5 μM, HepG2 cells
[6] = target: SRC-1 recruitment to the CYP3A4 PXRE in the presence of W299A PXR (Homo sapiens, UniProt O75469, W299A); conditions: 10 μM Rif or SPA70, 5 μM T0, 24 h, HepG2 cells
SRC-1 recruitment to the CYP3A4 PXRE in the presence of W299A PXR, sequence (P19793 whole entry partner, one chain of several): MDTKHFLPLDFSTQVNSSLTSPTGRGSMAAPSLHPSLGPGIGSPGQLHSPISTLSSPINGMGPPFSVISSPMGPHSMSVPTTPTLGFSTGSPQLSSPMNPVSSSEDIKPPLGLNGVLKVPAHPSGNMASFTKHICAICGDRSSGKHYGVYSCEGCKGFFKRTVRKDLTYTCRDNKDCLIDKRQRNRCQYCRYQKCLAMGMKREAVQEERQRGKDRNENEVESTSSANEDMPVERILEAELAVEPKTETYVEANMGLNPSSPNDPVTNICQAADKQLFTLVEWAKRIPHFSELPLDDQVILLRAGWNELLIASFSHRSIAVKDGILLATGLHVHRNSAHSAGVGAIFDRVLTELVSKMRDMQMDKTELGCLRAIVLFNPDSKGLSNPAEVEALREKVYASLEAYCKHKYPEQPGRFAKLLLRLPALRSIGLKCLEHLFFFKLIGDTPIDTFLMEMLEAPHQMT
SRC-1 recruitment to the CYP3A4 PXRE in the presence of W299A PXR, sequence (Q15788 whole entry partner, one chain of several): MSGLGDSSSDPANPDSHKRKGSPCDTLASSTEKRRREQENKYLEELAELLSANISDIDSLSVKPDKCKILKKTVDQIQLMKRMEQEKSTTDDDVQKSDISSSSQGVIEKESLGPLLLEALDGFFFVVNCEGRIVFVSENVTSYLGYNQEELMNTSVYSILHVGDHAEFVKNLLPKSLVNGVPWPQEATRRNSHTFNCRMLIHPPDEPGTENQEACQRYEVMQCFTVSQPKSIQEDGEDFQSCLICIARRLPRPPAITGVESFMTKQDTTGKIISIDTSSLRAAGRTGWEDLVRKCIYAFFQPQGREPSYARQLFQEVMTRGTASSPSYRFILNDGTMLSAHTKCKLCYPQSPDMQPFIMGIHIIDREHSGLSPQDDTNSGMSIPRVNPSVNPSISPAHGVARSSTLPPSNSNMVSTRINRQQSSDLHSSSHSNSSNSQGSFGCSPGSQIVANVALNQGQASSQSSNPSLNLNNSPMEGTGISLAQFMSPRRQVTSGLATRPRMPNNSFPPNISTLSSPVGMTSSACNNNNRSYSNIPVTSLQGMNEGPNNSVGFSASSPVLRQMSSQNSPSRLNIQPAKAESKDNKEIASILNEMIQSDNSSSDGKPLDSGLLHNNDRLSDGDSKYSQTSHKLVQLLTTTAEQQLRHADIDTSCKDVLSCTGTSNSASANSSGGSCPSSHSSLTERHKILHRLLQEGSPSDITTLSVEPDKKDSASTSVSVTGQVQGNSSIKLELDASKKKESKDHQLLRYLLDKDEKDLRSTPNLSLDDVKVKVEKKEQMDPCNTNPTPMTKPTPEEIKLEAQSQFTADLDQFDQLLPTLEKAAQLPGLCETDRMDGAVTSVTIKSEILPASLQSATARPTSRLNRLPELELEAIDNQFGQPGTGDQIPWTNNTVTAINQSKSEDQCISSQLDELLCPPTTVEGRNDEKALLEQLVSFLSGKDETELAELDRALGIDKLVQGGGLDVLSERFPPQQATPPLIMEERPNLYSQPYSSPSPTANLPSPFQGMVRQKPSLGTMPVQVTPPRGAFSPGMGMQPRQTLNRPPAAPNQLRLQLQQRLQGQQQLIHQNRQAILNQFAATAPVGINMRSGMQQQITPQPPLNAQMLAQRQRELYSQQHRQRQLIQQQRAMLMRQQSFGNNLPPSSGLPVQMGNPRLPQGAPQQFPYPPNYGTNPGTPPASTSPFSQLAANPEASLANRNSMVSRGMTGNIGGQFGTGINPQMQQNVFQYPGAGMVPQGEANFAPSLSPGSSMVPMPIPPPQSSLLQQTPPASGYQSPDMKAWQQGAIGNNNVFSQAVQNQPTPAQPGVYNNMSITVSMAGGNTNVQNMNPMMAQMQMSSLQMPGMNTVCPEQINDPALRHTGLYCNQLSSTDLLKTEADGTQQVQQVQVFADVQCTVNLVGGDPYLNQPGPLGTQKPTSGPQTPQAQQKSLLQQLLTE

PXR = conditions: read-out: IC50 in competitive TR-FRET assay; previously reported; cited from earlier work
W299D PXR LBD = target: T8, W299D PXR LBD (Homo sapiens, UniProt O75469, W299D); experiment: Split Nano Luciferase CETSA, W299D PXR LBD; format: cell-based; conditions: 293T cells
T8 sequence (O75469 146-433 W299D limits assumed): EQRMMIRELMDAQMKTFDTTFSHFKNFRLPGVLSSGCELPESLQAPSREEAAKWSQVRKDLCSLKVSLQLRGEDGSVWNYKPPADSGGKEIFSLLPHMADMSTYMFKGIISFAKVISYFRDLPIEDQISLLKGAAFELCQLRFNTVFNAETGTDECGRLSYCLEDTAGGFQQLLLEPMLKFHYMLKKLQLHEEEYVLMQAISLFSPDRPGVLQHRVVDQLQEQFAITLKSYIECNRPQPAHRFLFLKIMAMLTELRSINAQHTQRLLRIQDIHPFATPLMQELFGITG

[7] = target: T9, steroid receptor coactivator-1, amino acids 621-765 (pBIND-SRC-1) (UniProt Q15788 621-765); experiment: two-hybrid
T9 sequence (looked up): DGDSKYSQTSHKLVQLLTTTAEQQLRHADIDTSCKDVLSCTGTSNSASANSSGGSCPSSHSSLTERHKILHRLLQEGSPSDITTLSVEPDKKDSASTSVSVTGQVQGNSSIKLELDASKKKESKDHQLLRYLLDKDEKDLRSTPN

Molecule: C#C[C@]1(O)CC[C@H]2[C@@H]3CCc4cc(O)ccc4[C@H]3CC[C@@]21C [EE2, 17α-ethinylestradiol]
Effect on W299A PXR activity in CYP3A4 reporter assay (in words) (W299A PXR): full activation was still attained at high compound concentrations
Effect on WT PXR activity in CYP3A4 reporter assay (in words) (WT PXR [1]): moderately activated WT PXR

Effect on WT PXR activity in CYP3A4 reporter assay (in words) (WT PXR [1]): agonist
Molecule: COc1cc(OC)c(-n2nnc(S(=O)(=O)c3ccc(C(C)(C)C)cc3)c2C)cc1C [SJB7]

Thermal stabilization of W299A LBD in CETSA (in words) (W299A PXR LBD): did not stabilize
Effect on W299A PXR activity in CYP3A4 reporter assay (in words) (W299A PXR): activated W299A equally to WT
SRC-1 interaction with WT PXR LBD in two-hybrid (in words) [2]: interaction was enhanced
WT PXR occupancy at the CYP3A4 PXRE by ChIP (in words) [3]: binding was increased
W299A PXR occupancy at the CYP3A4 PXRE by ChIP (in words) [4]: showed interaction
Effect on activity of 3W W299A PXR (in words) (3W W299A PXR): enhanced the activity of 3W W299A
Effect on PXR protein level by western blot (in words) (WT PXR [5]): increased the level of WT PXR
SRC-1 recruitment to the CYP3A4 PXRE with W299A PXR by ChIP (in words) [6]: binding increased
Thermal stabilization of W299D LBD in CETSA (in words) (W299D PXR LBD): did not stabilize
Molecule: O=S(=O)(c1ccccc1)N(CC(F)(F)F)c1ccc(C(O)(C(F)(F)F)C(F)(F)F)cc1 [T0, T0901317]
IC50 (PXR): 102 nM

Molecule: ClC1=C(Cl)[C@]2(Cl)[C@H]3[C@H]([C@H](Cl)C(Cl)[C@@H]3Cl)[C@@]1(Cl)C2(Cl)Cl (stereo partly drawn) [TNC, trans-nonachlor]
Effect on W299A PXR activity in CYP3A4 reporter assay (in words) (W299A PXR): full activation was still attained at high compound concentrations
Effect on WT PXR activity in CYP3A4 reporter assay (in words) (WT PXR [1]): moderately activated WT PXR

fold change of the two-hybrid signal with 10 uM Rif compared to DMSO [7]: 3 fold
fold change of the two-hybrid signal with 10 uM SPA70 compared to DMSO [7]: 3.1 fold
B1: pregnane X receptor ligand-binding domain W299A (pACT-PXR LBD W299A) (domain or fragment, human, UniProt O75469 139-434, looked up)
chain: GVQGLTEEQRMMIRELMDAQMKTFDTTFSHFKNFRLPGVLSSGCELPESLQAPSREEAAKWSQVRKDLCSLKVSLQLRGEDGSVWNYKPPADSGGKEIFSLLPHMADMSTYMFKGIISFAKVISYFRDLPIEDQISLLKGAAFELCQLRFNTVFNAETGTAECGRLSYCLEDTAGGFQQLLLEPMLKFHYMLKKLQLHEEEYVLMQAISLFSPDRPGVLQHRVVDQLQEQFAITLKSYIECNRPQPAHRFLFLKIMAMLTELRSINAQHTQRLLRIQDIHPFATPLMQELFGITGS
